Assay results: patent publication US20090253768A1, “THERAPEUTIC COMPOUNDS FOR DISEASES AND DISORDERS” (Myriad Genetics, Incorporated, priority 2006, published 2009)

System: khc/+; klc/+ Drosophila larvae
Assay: Suppression of the flipper (tail-flipping) motor dysfunction phenotype in an animal model
Format: in vivo, Drosophila melanogaster
Settings: for larvae effectively "cured" of their motor dysfunction: after accounting for penetrance
From the text: A stock of fruit flies (Drosophila melanogaster) was generated that is heterozygous for both KHC and KLC, which encode proteins that associate to form functional kinesin-1, also called conventional kinesin. […] A number of factors that contribute to this incomplete penetrance were identified, including the following: • 1. The flipper phenotype of a given animal appears to be suppressed by the number of larvae that precede the animal in development. That is, if a larva is among the first to develop in a vial of eggs, it is more likely to show the flipper phenotype than if it is one of the last to emerge. • 2. The flipper phenotype appears to be less robust on hard media than it is on soft media. • 3. The phenotype is diminished by physically disturbing the larvae. • 4. The clearest expression of the flipper phenotype is restricted to that phase of the 3rd instar stage of development that follows the appearance of spiracles.
Attempts to accommodate these observations were mad in order to optimize penetrance of the phenotype. Specifically: • 1. Virgin females and males were confined to a single vial for only 2 days; the flies were then transferred to fresh vials for an additional 2 days; and this process was repeated to minimize the number of larvae that would emerge in each vial. • 2. Efforts were taken to minimize handling of the larvae. • 3. Attempts were made to score the phenotype late in the 3rd instar stage of development.
In a non-blinded experiment, compound 16 (Tables 1 and 2) was tested for its ability to suppress the flipper phenotype of khc/+; klc/+ Drosophila larvae (using the animal model described in Example 7), relative to vehicle (DMSO) alone. Specifically khc/+; klc/+ Drosophila larvae were grown in the presence or absence of 0.5 mM compound 16 and scored for motor dysfunction. A total of 151 larvae were scored, 77 in the vehicle-only group and 74 in the vehicle plus compound group. […] The ratio of Flipper to Non-Flipper phenotype observed in the vehicle-only group corresponds to an 81% penetrance of the flipper phenotype in this experiment. […] Note that equivalent conclusions were obtained if, instead of scoring the number of larvae with and without motor dysfunction, the severity of the aberrant movement was analyzed.
This experiment was repeated using a blinded format and a total of 221 larvae were scored. Of the larvae in this study 104 larvae were in the vehicle-only group and 117 larvae were in the treatment group. […] The results of this second study are quite similar to those of the first study: after accounting for the differences in penetrance between the studies, compound 16 effectively “cured” 42% of the larvae of their motor dysfunction in the first experiment, and 43% of the larvae in the second experiment.

Cc1c(-c2ccccc2)cc(-c2ccc(C(F)(F)F)cc2)n1-c1ccc(CCCC(=O)O)cc1 [Compound 16, 4-{4-[2-Methyl-3-phenyl-5-(4-trifluoromethyl-phenyl)-pyrrol-1-yl]-phenyl}-butyric acid] was tested, and the “reduction in flipper phenotype relative to vehicle” value (blinded repeat, 117 treated vs 104 vehicle larvae, vehicle penetrance 78%, Yates' chi-square p <1x10^-6) was “highly significant reduction in flipper phenotype”, the “larvae effectively "cured" of their motor dysfunction” value (first (non-blinded) experiment, 0.5 mM) was 42% and the “suppression of the Flipper phenotype relative to vehicle (DMSO)” value (non-blinded experiment, larvae grown with 0.5 mM compound, 74 treated vs 77 vehicle larvae, vehicle penetrance 81%, Fischer's test p less than 10^-4) was “significant suppression of the Flipper phenotype”. For the same compound, the “larvae effectively "cured" of their motor dysfunction” value (second (blinded) experiment) was 43%.
